Measured values from patent US10377741B2, “Substituted heteroaryl aldehyde compounds and methods for their use in increasing tissue oxygenation” (Global Blood Therapeutics, Inc., priority 2011, dated 2019).

How the values were obtained:
whole blood = assay: Whole blood assay: oxygen equilibrium curves of whole blood; assay type: cell-based, human (homozygous sickle cell patients); details: compound at 1000 μM; hematocrit 20%, 1 hour at 37° C.
Experimental: Oxygen Equilibrium Curves (OEC) of whole blood before and after treatment with different concentrations of substituted benzaldehyde compounds were performed as follows using a HEMOX analyzer (TCS Scientific, New Hope, Pa.). Blood samples from homozygous sickle cell patients were obtained though the Hemoglobinopathy Center at Children's Hospital Oakland Research Institute (CHORI) with Institutional Review Board approval. The hematocrit was adjusted to 20% using autologous plasma and the blood samples were incubated for 1 hour at 37° C. in absence or presence of compounds. 100 μl of these samples were added to 5 mL of Hemox buffer (30 mM TES, 130 mM NaCl, 5 mM KCl, pH=7.4) at 37° C. and then transferred to the Hemox sample chamber. The samples were saturated with oxygen by flushing with compressed air for 10 minutes. The samples were then flushed with pure nitrogen and the respective absorbances of oxy- and deoxy-Hb are recorded as a function of the solution pO2. The oxygen equilibrium data were then fitted to the Hill Model to obtain values for p50. The deoxygenation curves for both whole blood alone (control) and whole blood in the presence of the compound were collected with the TCS software.
Table 5 below lists the delta p50% values where + indicates a delta p50% of between 0 and 29, ++ indicates a delta p50% of between 30 and 50, and +++ indicates a delta p50% of 50 or greater. Unless noted otherwise, the compounds in Table 2 were tested at 1000 μM.

[1] = target: T1, purified Hemoglobin S (HbS) (Homo sapiens, UniProt P68871+P69905, E7V); assay: Modulation of hemoglobin oxygen affinity: oxygen equilibrium curves (HEMOX) in purified HbS; assay type: biochemical, human (homozygous sickle cell patients); details: compound at 30 μM; 25 μM purified HbS, 45 min at 37° C.
T1 construct: HbS was purified by a modified procedure; from tissue; host or cells: blood of homozygous sickle cell patients (CHORI); for the polymerization assay purified by the CRO VIRUSYS
Procedure, shortened: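 HbS from homozygous sickle cell patient blood, 25 μM in HEMOX buffer pH 7.4, incubated 45 min at 37° C with compound (30 μM unless noted). Air-saturated then deoxygenated with N2; p50 from Hill fit; delta p50% = (control p50 − treated p50)/control p50 × 100.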

HbS/A = target: T2, HbS/A (Homo sapiens, UniProt P68871+P69905, E7V); assay: R/T assay (relaxed-to-tense transition under deoxygenated conditions); assay type: biochemical, human (homozygous sickle cell patients); details: 3 μM HbS/A, % R remaining vs no treatment
T2 construct: A mixture of HbS/A was purified from blood; from tissue; host or cells: blood of homozygous sickle cell patients (CHORI)
Experimental: A relaxed-to-tense transition assay (“R/T assay”) was used to determine the ability of substituted benzaldehyde compounds to maintain the high-oxygen affinity relaxed (R) state of hemoglobin under deoxygenated conditions. This ability can be expressed as a “delta R” value (i.e., the change in the time-period of the R state after hemoglobin is treated with a compound, as compared to the period without treatment with the compound). Delta R is the % R to remaining after the compounds treatment compared with no treatment (e.g. if R % without treatment is 8% while with treatment with a target compound is 48% R at 30 μM, then % R is 40% for that compound.
A mixture of HbS/A was purified from blood obtained from homozygous sickle cell patients though the Hemoglobinopathy Center at Children's Hospital Oakland Research Institute (CHORI) with Institutional Review Board approval. HbS/A (at a final concentration of 3 μM) was incubated for 1 hr at 37° C. in presence or absence of compounds in […] potassium phosphate buffer, pH=7.4 and 30 μM 2, 3 diphosphoglycerate (DPG) in 96 well plates in a final volume of 160 μl. Compounds were added at different concentrations (3 μM to 100 μM final concentrations). Plates were covered with a Mylar film. After incubation was completed the Mylar cover was removed and the plates were placed in a Spectrostar Nano plate reader previously heated at 37° C. Five minutes later, N2 (flow rate=20 L/min) was flowed through the spectrophotometer. Spectroscopic measurements (300 nm to 700 nm) were taken every 5 min for 2 hours. Data analysis was performed by using linear regression from the data retrieved for all wavelengths.
Table 4 below lists the delta R values where + indicates a delta R of between 0 and 30, ++ indicates a delta R of between 30 and 50, and +++ indicates a delta R of 50 or greater. Unless noted otherwise, the compounds in Table 2 were tested at 30 μM.

Row | Structure (SMILES) | delta p50% Values for Whole Blood Assay (whole blood) | delta p50% [1] | delta R (HbS/A; compound at 9 μM) | delta R (HbS/A; compound at 30 μM)
1 | COc1cc(C=O)c(OCc2nccc3ccccc23)cn1 [Compound 44, 5-(isoquinolin-1-ylmethoxy)-2-methoxyisonicotinaldehyde] | + (a delta p50% of between 0 and 29) | +++ (a delta p50% of 50 or greater) | – | –
2 | COc1cc(C=O)c(OCc2cccn3c(C)nnc23)cn1 [Compound 58, 2-methoxy-5-((3-methyl-[1,2,4]triazolo[4,3-a]pyridin-8-yl)methoxy)isonicotinaldehyde] | + (a delta p50% of between 0 and 29) | ++ (a delta p50% of between 30 and 50) | + (a delta R of between 0 and 30) | –
3 | COc1cc(C=O)c(OCc2cccnc2-c2ccn[nH]2)cn1 [Compound 65, 5-((2-(1H-pyrazol-5-yl)pyridin-3-yl)methoxy)-2-methoxyisonicotinaldehyde] | + (a delta p50% of between 0 and 29) | ++ (a delta p50% of between 30 and 50) | + (a delta R of between 0 and 30) | –
4 | COc1cc(C=O)c(OCc2cncc(-c3ccnn3C)c2)cn1 [Compound 74, 2-methoxy-5-((5-(1-methyl-1H-pyrazol-5-yl)pyridin-3-yl)methoxy)isonicotinaldehyde] | ++ (a delta p50% of between 30 and 50) | ++ (a delta p50% of between 30 and 50) | – | –
5 | COc1cc(C=O)c(OCc2cncc(C(=O)O)c2)cn1 [Compound 79, 5-((4-formyl-6-methoxypyridin-3-yloxy)methyl)nicotinic acid] | + (a delta p50% of between 0 and 29) | ++ (a delta p50% of between 30 and 50) | ++ (a delta R of between 30 and 50) | –
6 | COc1cc(C=O)c(OCc2cnc3ccccc3c2)cn1 [Compound 80, 2-methoxy-5-(quinolin-3-ylmethoxy)isonicotinaldehyde] | + (a delta p50% of between 0 and 29) | ++ (a delta p50% of between 30 and 50) | +++ (a delta R of 50 or greater) | –
7 | Cc1ccc(OCc2cccc3cnn(C)c23)c(C=O)n1 [Compound 92, 6-methyl-3-((1-methyl-1H-indazol-7-yl)methoxy)picolinaldehyde] | + (a delta p50% of between 0 and 29) | ++ (a delta p50% of between 30 and 50) | + (a delta R of between 0 and 30) | –
8 | Cc1ccc(OCc2nccc3ccccc23)c(C=O)n1 [Compound 93, 3-(isoquinolin-1-ylmethoxy)-6-methylpicolinaldehyde] | + (a delta p50% of between 0 and 29) | ++ (a delta p50% of between 30 and 50) | + (a delta R of between 0 and 30) | –
9 | COc1cc(C=O)c(OCc2cccc3ocnc23)cn1 [Compound 103, 5-(benzo[d]oxazol-4-ylmethoxy)-2-methoxyisonicotinaldehyde] | + (a delta p50% of between 0 and 29) | ++ (a delta p50% of between 30 and 50) | ++ (a delta R of between 30 and 50) | –
10 | Cc1ccc(OCc2ccnc3cccnc23)c(C=O)n1 [Compound 106, 3-((1,5-naphthyridin-4-yl)methoxy)-6-methylpicolinaldehyde] | + (a delta p50% of between 0 and 29) | ++ (a delta p50% of between 30 and 50) | – | –
11 | Cc1ccc(OCc2ccc3c(cnn3C)c2)c(C=O)n1 [Compound 108, 6-methyl-3-((1-methyl-1H-indazol-5-yl)methoxy)picolinaldehyde] | + (a delta p50% of between 0 and 29) | ++ (a delta p50% of between 30 and 50) | +++ (a delta R of 50 or greater) | –
12 | COc1cc(C=O)c(OCc2cccc3ncccc23)cn1 [Compound 120, 2-methoxy-5-(quinolin-5-ylmethoxy)isonicotinaldehyde] | + (a delta p50% of between 0 and 29) | ++ (a delta p50% of between 30 and 50) | ++ (a delta R of between 30 and 50) | –
13 | COc1cc(C=O)c(OCc2cccnc2-c2ccnn2C)cn1 [Compound 129, 2-methoxy-5-((2-(1-methyl-1H-pyrazol-5-yl)pyridin-3-yl)methoxy)isonicotinaldehyde] | ++ (a delta p50% of between 30 and 50) | ++ (a delta p50% of between 30 and 50) | ++ (a delta R of between 30 and 50) | –
14 | COc1cc(C=O)c(OCc2cccnc2-c2nn[nH]n2)cn1 [Compound 131, 5-((2-(2H-tetrazol-5-yl)pyridin-3-yl)methoxy)-2-methoxyisonicotinaldehyde] | + (a delta p50% of between 0 and 29) | ++ (a delta p50% of between 30 and 50) | + (a delta R of between 0 and 30) | –
15 | COc1cc(C=O)c(OCc2cccnc2-c2[nH]ncc2C)cn1 [Compound 132, 2-methoxy-5-((2-(4-methyl-1H-pyrazol-5-yl)pyridin-3-yl)methoxy)isonicotinaldehyde] | ++ (a delta p50% of between 30 and 50) | +++ (a delta p50% of 50 or greater) | – | ++ (a delta R of between 30 and 50)
16 | COc1cc(C=O)c(OCc2c(-c3ccn[nH]3)ncc3ccccc23)cn1 [Compound 133, 5-((3-(1H-pyrazol-5-yl)isoquinolin-4-yl)methoxy)-2-methoxyisonicotinaldehyde] | + (a delta p50% of between 0 and 29) | ++ (a delta p50% of between 30 and 50) | ++ (a delta R of between 30 and 50) | –
17 | COc1cc(C=O)c(OCc2cccn3cncc23)cn1 [Compound 140, 5-(imidazo[1,5-a]pyridin-8-ylmethoxy)-2-methoxyisonicotinaldehyde] | + (a delta p50% of between 0 and 29) | ++ (a delta p50% of between 30 and 50) | + (a delta R of between 0 and 30) | –
18 | COc1cc(C=O)c(OCc2cccnc2-c2cnn(C)c2C)cn1 [Compound 143, 5-((2-(1,5-dimethyl-1H-pyrazol-4-yl)pyridin-3-yl)methoxy)-2-methoxyisonicotinaldehyde] | + (a delta p50% of between 0 and 29) | ++ (a delta p50% of between 30 and 50) | + (a delta R of between 0 and 30) | –
19 | COCCOc1cc(C=O)c(OCc2cccn3ccnc23)cn1 [Compound 179, 5-(imidazo[1,2-a]pyridin-8-ylmethoxy)-2-(2-methoxyethoxy) isonicotinaldehyde] | ++ (a delta p50% of between 30 and 50) | ++ (a delta p50% of between 30 and 50) | + (a delta R of between 0 and 30) | –
20 | COCCOc1cc(C=O)c(OCc2cccnc2-c2ccnn2CCC(F)(F)F)cn1 [Compound 209, 2-(2-methoxyethoxy)-5-((2-(1-(3,3,3-trifluoropropyl)-1H-pyrazol-5-yl)pyridin-3-yl)methoxy)isonicotinaldehyde] | + (a delta p50% of between 0 and 29) | – | – | –
